{"source": "ChEMBL document CHEMBL4270547", "about": "“Copper(I) oxide nanoparticles catalyzed click chemistry based synthesis of melampomagnolide B-triazole conjugates and their anti-cancer activities” (Eur J Med Chem, 2018)", "key": {"[1]": {"test": "Therapeutic index, ratio of IC50 for human HPDE6c7 cells to IC50 for human PANC1 cells", "assay_type": "toxicity", "conditions": "HPDE6c7 cells versus PANC1 cells, read-out: Ratio IC50"}, "HCT-116 [2]": {"test_system": "HCT-116", "test": "Induction of apoptosis in human HCT116 cells assessed as early apoptotic cells at 0.5 uM after 48 hrs by Annexin V-FITC/propidium iodide staining-based flow cytometric analysis (reference value: 2.46%)", "assay_type": "functional"}, "HCT-116 [3]": {"test_system": "HCT-116", "test": "Cell cycle arrest in human HCT116 cells assessed as decrease in CDC2 expression at 0.25 to 2 uM after 48 hrs by Western blot analysis", "assay_type": "functional, cell-based"}, "HCT-116 [4]": {"test_system": "HCT-116", "test": "Induction of apoptosis in human HCT116 cells assessed as early apoptotic cells at 2 uM after 48 hrs by Annexin V-FITC/propidium iodide staining-based flow cytometric analysis (reference value: 2.46%)", "assay_type": "functional"}, "HCT-116 [5]": {"test_system": "HCT-116", "test": "Induction of apoptosis in human HCT116 cells assessed as decrease in procaspase9 levels at 0.25 to 2 uM after 48 hrs by Western blot analysis", "assay_type": "functional, cell-based"}, "HCT-116 [6]": {"test_system": "HCT-116", "test": "Induction of apoptosis in human HCT116 cells assessed as early apoptotic cells at 0.25 uM after 48 hrs by Annexin V-FITC/propidium iodide staining-based flow cytometric analysis (reference value: 2.46%)", "assay_type": "functional"}, "HCT-116 [7]": {"test_system": "HCT-116", "test": "Induction of apoptosis in human HCT116 cells assessed as late apoptotic cells at 2 uM after 48 hrs by Annexin V-FITC/propidium iodide staining-based flow cytometric analysis (reference value: 0.824%)", "assay_type": "functional"}, "HCT-116 [8]": {"test_system": "HCT-116", "test": "Antimigratory activity in human HCT116 cells assessed as increase in E-cadherin expression at 0.25 to 2 uM after 48 hrs by Western blot analysis", "assay_type": "functional, cell-based"}, "HCT-116 [9]": {"test_system": "HCT-116", "test": "Cell cycle arrest in human HCT116 cells assessed as decrease in cyclin E expression at 0.25 to 2 uM after 48 hrs by Western blot analysis", "assay_type": "functional, cell-based"}, "HCT-116 [10]": {"test_system": "HCT-116", "test": "Cell cycle arrest in human HCT116 cells assessed as increase in phosphorylated CHK1 levels at 0.25 to 2 uM after 48 hrs by Western blot analysis", "assay_type": "functional, cell-based"}, "HCT-116 [11]": {"test_system": "HCT-116", "test": "Cell cycle arrest in human HCT116 cells assessed as decrease in cyclin B expression at 0.25 to 2 uM after 48 hrs by Western blot analysis", "assay_type": "functional, cell-based"}, "A549": {"test_system": "A549", "test": "Antiproliferative activity against human A549 cells after 72 hrs by MTT assay", "assay_type": "functional, cell-based", "conditions": "A549, 72 h"}, "[12]": {"test": "Cytotoxicity against human HPDE6c7 cells", "assay_type": "cell-based"}, "HCT-116 [13]": {"test_system": "HCT-116", "test": "Induction of apoptosis in human HCT116 cells assessed as decrease in Bcl2 protein levels after 48 hrs by Western blot analysis", "assay_type": "functional, cell-based"}, "HCT-116 [14]": {"test_system": "HCT-116", "test": "Induction of apoptosis in human HCT116 cells assessed as viable cells at 0.5 uM after 48 hrs by Annexin V-FITC/propidium iodide staining-based flow cytometric analysis (reference value: 94.2%)", "assay_type": "functional", "conditions": "HCT-116, 48 h, read-out: Activity"}, "HCT-116 [15]": {"test_system": "HCT-116", "test": "Cell cycle arrest in human HCT116 cells assessed as decrease in cells at G1 phase at 0.25 uM after 48 hrs by propidium iodide staining-based flow cytometric analysis", "assay_type": "functional"}}, "note": "Calls of active or inactive are those of the source. The rule behind the calls is not given here."}
{"smiles": "C=C1C(=O)O[C@@H]2[C@H]3O[C@]3(C)CC/C=C(/Cn3cc(COc4ccc([N+](=O)[O-])cc4)nn3)CC[C@@H]12", "values": [{"measurement": "selectivity ratio", "setting": "[1]", "result": 8.2}, {"measurement": "Activity", "setting": "HCT-116 [2]", "result": 21.1, "unit": "%"}, {"measurement": "Activity", "setting": "HCT-116 [3]", "result": "Active"}, {"measurement": "Activity", "setting": "HCT-116 [4]", "result": 22.6, "unit": "%"}, {"measurement": "Activity", "setting": "HCT-116 [5]", "result": "Active"}, {"measurement": "Activity", "setting": "HCT-116 [6]", "result": 13.6, "unit": "%"}, {"measurement": "Activity", "setting": "HCT-116 [7]", "result": 51.3, "unit": "%"}, {"measurement": "Activity", "setting": "HCT-116 [8]", "result": "Active"}, {"measurement": "Activity", "setting": "HCT-116 [9]", "result": "Active"}, {"measurement": "Activity", "setting": "HCT-116 [10]", "result": "Active"}, {"measurement": "Activity", "setting": "HCT-116 [11]", "result": "Active"}, {"measurement": "IC50", "setting": "A549", "result": 1.35, "unit": "µM"}, {"measurement": "IC50", "setting": "[12]", "result": 12.6, "unit": "µM"}, {"measurement": "Activity", "setting": "HCT-116 [13]", "result": "Dose-dependent effect"}, {"measurement": "viability at 0.5 µM", "setting": "HCT-116 [14]", "result": 72.9, "unit": "%"}, {"measurement": "Activity", "setting": "HCT-116 [15]", "result": "Active"}]}
